Measured values reported in patent US20260256764A1, “COMPOSITIONS AND METHODS FOR ORAL DELIVERY OF SUSTAINED RELEASE CRYSTALLINE PRX-3140” (NANOPHARMACEUTICS, INC., priority 2023, published 2026).

Assays:
blood glucose = assay: Blood glucose levels after oral PRX-3140 potassium salt; assay type: in vivo, human; settings: 15 mg orally, single dose, fed conditions, male volunteers
Description: Example 18—Blood Glucose Levels of Controls vs. Sustained-Release Oral PRX-3140 Potassium Salt Capsules. A Phase I, single dose escalation study under fed conditions was conducted in male volunteers with PRX-3140 potassium salt at the 15 mg dose level. […] The study was also conducted to examine the effects of PRX-3140 sustained-release capsule administration on the subjects' fasting and postprandial blood glucose concentrations. Subjects were monitored daily for vital signs (including blood pressure, heart rate, respiratory rate, and temperature) and adverse events. In addition, blood was drawn to assess glucose concentration. Glucose was tested within 60 minutes prior to meals in the morning and throughout the day at different timepoints.

[1] = system: more than 50 other receptors including GPCRs, ion channels and receptor tyrosine kinases; assay: binding to other receptors tested
Description: . The specific ligand binding to the receptors is defined as the difference between the total binding and the nonspecific binding determined in the presence of an excess of unlabelled ligand. […]

[2] = Photostability study (ICH Q1B), HPLC; assay type: physicochemical
Description: […]. Samples were exposed to ICH photostability guideline Q1B=1.2 million lux hours of cool, white fluorescent light & 200 watt hours/m2 of UVA light at […]. Samples were exposed for 2 days and tested using HPLC.
[…]. The light exposure was performed in a cabinet set at 25 degrees Celsius/60% RH.
[…]. Changes were evident for crystalline fine particle Form I of PRX-3140 potassium salt after exposure to UVA and white light. The sample changed color particularly on the upper exposed surface of the material and there were changes apparent in the HPLC data. […]. The single impurity profile met the specification (0.20) but significant changes were observed. There was an increase in the number of minor impurities, particularly in a region of the chromatogram between RRT 1.5 and 2.1. Total impurities increased from 0.20% in the control sample to 0.770 in the exposed sample. An impurity at RRT 1.83 which was not present before exposure to light was formed at 0.16% in the exposed sample. Other changes included a change in appearance of the material to a sticky solid and an increase in water content to 4.3% w/w.

[3] = 30% peroxide degradation study; assay type: physicochemical; settings: 18-hour exposure to 30% hydrogen peroxide; 250 nm
Description: […]. Sample was evaporated to dryness and analyzed using LC/UV/MS and NMR analysis. Two major degradants are noted in the LC/UV/MS.
[…]. The solvent is removed under vacuum at RT, then acetonitrile (5 mL) was added to the residue and evaporated to dryness at 40 degrees Celsius. […].
Two milligrams of the sample was weighed into a 4 mL vial. Two mL of 20/80 methanol/water was added to the vial and vortexed vigorously. FIG. 9A is a HPLC chromatogram of the H2O2 sample at 250 nm. Three major peaks are noted, including the parent molecule at 12.5 minutes. […]. Maximums are noted at 220, 250, and 320 nm. Chromatograms for all samples were collected at all three wavelengths with 250 nm as the primary wavelength based on lambda max. FIG. 10A is the UV spectra for the peak at 8.9 minutes. In comparison with the parent molecule, the high-end absorption is absent (320 nm). FIG. 10B is the UV spectra for the peak at 12.9 minutes. […]. An [M+H]+ is noted at 258.0 m/z with [M+H+NH3]+ at 275.1, [M+Na]+ at 280.1, and [2M+Na]+ at 537.1 m/z. It is noted that this is a fragile molecule and required the reduction of the Fragmentor Voltage from 150V down to 70V to see the protonated molecular ion. […] FIG. 11C is the mass spectra of the largest degradation product of PRX-3140b at 12.9 minutes, relative retention time (RRT) of 1.04 (compared to 1.05 in Example 4). […]

[4] = Forced degradation study (acid, base, 3% hydrogen peroxide), LC-UV-MS; assay type: physicochemical; settings: 24 hours; for percent peak area at 250 nm, RRT 1.00 (purity of parent molecule) / percent peak area at 250 nm, RRT 1.05 (PRX-3140b): potassium salt
Description: Example 4—Crystalline PRX-3140 Potassium Salt Forced Degradation Study. Crystalline fine particle Form I of PRX-3140 potassium salt was subjected to a forced degradation study using acid, base, or hydrogen peroxide exposure for 24 hours. Samples were neutralized and analyzed using LC-UV-MS.
Sample Preparation: Crystalline fine particle Form I of PRX-3140 potassium salt, 50 mg, was weighed out into a 25 mL volumetric flask and taken to volume with water (2 mg/mL stock). One mL of stock was added to four, 4 mL vials. One mL of either 1N HCl, 1N NaOH, 3% H2O2, or DI Water (control) was added to the appropriate vial, mixed, and stored at room temperature for 24 hours. After storage, the samples of acid and base were neutralized by addition of 1 mL their counter solution. […] Samples were analyzed using LC-UV-MS.
Table 5 lists a comparison for the control, acid, base, and peroxide samples showing percent peak area versus relative retention time (RRT) at 250 nm. While some minor changes can be noted between the control with the acid and base samples, the overall purity (peak area) of the parent molecule is just slightly higher for the acid and base sample. Some of the minor impurities appear to be reacting with the acid or base, potentially reforming to the parent.

[5] = Acid (1N HCl), listed as PRX-3140 Potassium Salt
[6] = Acid (1N HCl), listed as PRX-3140 potassium salt
[7] = Base (1N NaOH), listed as PRX-3140 Potassium Salt
[8] = Base (1N NaOH), listed as PRX-3140 potassium salt
[9] = Control (DI Water), listed as PRX-3140 Potassium Salt
[10] = Control (DI Water), listed as PRX-3140 potassium salt
[11] = H2O2 (3%), listed as PRX-3140 Potassium Salt
[12] = H2O2 (3%), listed as PRX-3140 potassium salt

Question: With `CC(C)n1c(=O)c(C(=O)NCCCN2CCCCC2)c([O-])c2ccsc21.[K+]` [PRX-3140, 6,7-Dihydro-4-hydroxy-7-isopropyl-6-oxo-N-(3-(piperidin-1-yl)propyl)thieno[2,3-b]pyridine-5-carboxamide potassium salt] as the molecule, how does the “mean blood glucose level decrease compared to control values” (blood glucose) read?
Answer: −19.5%

Question: What about the “affinity for more than 50 other receptors tested” value [1] of the same molecule?
Answer: no significant affinity

Question: And the assay value ([2]; Exposed Sample (ICH Q1B light, 2 days))?
Answer: 94.20 % w/w

Question: And the “Water Content - KF” value ([2]; t = 0, listed as PRX-3140 potassium salt, potassium salt)?
Answer: 0.900 % w/w

Question: And the “purity of the parent molecule PRX-3140” value [3]?
Answer: 29.6%

Question: And the “percent peak area at 250 nm, RRT 0.99” value ([4]; Acid (1N HCl))?
Answer: 0.07%

Question: What about the “percent peak area at 250 nm, RRT 1.08” value ([4]; Acid (1N HCl)) of the same molecule?
Answer: 0.11%

Question: And the “percent peak area at 250 nm, RRT 1.11” value ([4]; Acid (1N HCl))?
Answer: 0.04%

Question: And the “percent peak area at 250 nm, RRT 1.27” value ([4]; Acid (1N HCl))?
Answer: 0.04%

Question: What about the “percent peak area at 250 nm, RRT 1.34” value ([4]; Acid (1N HCl)) of the same molecule?
Answer: 0.15%

Question: What about the “percent peak area at 250 nm, RRT 1.53” value ([4]; Acid (1N HCl)) of the same molecule?
Answer: 0.43%

Question: What about the “percent peak area at 250 nm, RRT 1.79” value ([4]; Acid (1N HCl)) of the same molecule?
Answer: 0.04%

Question: What about the “percent peak area at 250 nm, RRT 2.51” value ([4]; Acid (1N HCl)) of the same molecule?
Answer: 0.06%

Question: And the “percent peak area at 250 nm, RRT 2.70” value ([4]; Acid (1N HCl))?
Answer: 0.13%

Question: And the “percent peak area at 250 nm, RRT 1.00 (purity of parent molecule)” value [4, 5]?
Answer: 98.94%

Question: What about the “percent peak area at 250 nm, RRT 1.05 (PRX-3140b)” value (“percent peak area … (PRX-3140b)” below) [4, 5] of the same molecule?
Answer: <0.03%

Question: And the “percent peak area at 250 nm, RRT 1.00 (purity of parent molecule)” value [4, 6]?
Answer: 98.9%

Question: What about the “percent peak area … (PRX-3140b)” value [4, 6] of the same molecule?
Answer: < 0.03%

Question: What about the “percent peak area at 250 nm, RRT 0.94” value ([4]; Base (1N NaOH)) of the same molecule?
Answer: 0.28%

Question: What about the “percent peak area at 250 nm, RRT 1.08” value ([4]; Base (1N NaOH)) of the same molecule?
Answer: 0.12%

Question: And the “percent peak area at 250 nm, RRT 1.34” value ([4]; Base (1N NaOH))?
Answer: 0.16%

Question: What about the “percent peak area at 250 nm, RRT 1.53” value ([4]; Base (1N NaOH)) of the same molecule?
Answer: 0.42%

Question: What about the “percent peak area at 250 nm, RRT 1.79” value ([4]; Base (1N NaOH)) of the same molecule?
Answer: 0.05%

Question: And the “percent peak area at 250 nm, RRT 2.51” value ([4]; Base (1N NaOH))?
Answer: 0.05%

Question: And the “percent peak area at 250 nm, RRT 2.70” value ([4]; Base (1N NaOH))?
Answer: 0.12%

Question: What about the “percent peak area at 250 nm, RRT 1.00 (purity of parent molecule)” value [4, 7] of the same molecule?
Answer: 98.71%

Question: And the “percent peak area … (PRX-3140b)” value [4, 7]?
Answer: <0.03%

Question: What about the “percent peak area at 250 nm, RRT 1.00 (purity of parent molecule)” value [4, 8] of the same molecule?
Answer: 98.7%

Question: What about the “percent peak area … (PRX-3140b)” value [4, 8] of the same molecule?
Answer: < 0.03%

Question: What about the “percent peak area at 250 nm, RRT 1.08” value ([4]; Control (DI Water)) of the same molecule?
Answer: 0.12%

Question: What about the “percent peak area at 250 nm, RRT 1.11” value ([4]; Control (DI Water)) of the same molecule?
Answer: 0.04%

Question: What about the “percent peak area at 250 nm, RRT 1.34” value ([4]; Control (DI Water)) of the same molecule?
Answer: 0.17%

Question: And the “percent peak area at 250 nm, RRT 1.53” value ([4]; Control (DI Water))?
Answer: 0.42%

Question: What about the “percent peak area at 250 nm, RRT 1.71” value ([4]; Control (DI Water)) of the same molecule?
Answer: 0.23%

Question: What about the “percent peak area at 250 nm, RRT 1.79” value ([4]; Control (DI Water)) of the same molecule?
Answer: 0.11%

Question: And the “percent peak area at 250 nm, RRT 1.93” value ([4]; Control (DI Water))?
Answer: 0.06%

Question: What about the “percent peak area at 250 nm, RRT 2.51” value ([4]; Control (DI Water)) of the same molecule?
Answer: 0.06%

Question: And the “percent peak area at 250 nm, RRT 2.70” value ([4]; Control (DI Water))?
Answer: 0.18%

Question: What about the “percent peak area at 250 nm, RRT 1.00 (purity of parent molecule)” value [4, 9] of the same molecule?
Answer: 98.60%

Question: And the “percent peak area … (PRX-3140b)” value [4, 9]?
Answer: <0.03%

Question: What about the “percent peak area at 250 nm, RRT 1.00 (purity of parent molecule)” value [4, 10] of the same molecule?
Answer: 98.6%

Question: What about the “percent peak area … (PRX-3140b)” value [4, 10] of the same molecule?
Answer: < 0.03%

Question: What about the “percent peak area at 250 nm, RRT 1.00 (purity of parent molecule)” value ([4]; Control (DI Water)) of the same molecule?
Answer: 98.6%

Question: And the “percent peak area at 250 nm, RRT 0.78 (PRX-3140a)” value ([4]; H2O2 (3%))?
Answer: 8.49%

Question: And the “percent peak area at 250 nm, RRT 0.82” value ([4]; H2O2 (3%))?
Answer: 0.10%

Question: What about the “percent peak area at 250 nm, RRT 1.08” value ([4]; H2O2 (3%)) of the same molecule?
Answer: 0.19%

Question: And the “percent peak area at 250 nm, RRT 1.27” value ([4]; H2O2 (3%))?
Answer: 0.21%

Question: And the “percent peak area at 250 nm, RRT 1.34” value ([4]; H2O2 (3%))?
Answer: 0.09%

Question: What about the “percent peak area at 250 nm, RRT 1.42” value ([4]; H2O2 (3%)) of the same molecule?
Answer: 0.32%

Question: What about the “percent peak area at 250 nm, RRT 1.53” value ([4]; H2O2 (3%)) of the same molecule?
Answer: 0.42%

Question: And the “percent peak area at 250 nm, RRT 1.79” value ([4]; H2O2 (3%))?
Answer: 0.19%

Question: What about the “percent peak area at 250 nm, RRT 2.70” value ([4]; H2O2 (3%)) of the same molecule?
Answer: 0.11%

Question: And the “percent peak area at 250 nm, RRT 1.00 (purity of parent molecule)” value [4, 11]?
Answer: 80.57%

Question: What about the “percent peak area … (PRX-3140b)” value [4, 11] of the same molecule?
Answer: 9.06%

Question: What about the “percent peak area at 250 nm, RRT 1.00 (purity of parent molecule)” value [4, 12] of the same molecule?
Answer: 80.6%

Question: What about the “percent peak area … (PRX-3140b)” value [4, 12] of the same molecule?
Answer: 9.1%

Question: And the “percent peak area at 250 nm, RRT 1.00 (purity of parent molecule)” value ([4]; H2O2 (3%))?
Answer: 80.6%
